Columns and labels:
Format in all cases: cell-based, Escherichia coli
E. coli ER2566 = assay: UV radiation survival spot assay of dinQ variants; details: UV irradiation of 24 J/m2, compared with intact dinQ (pBK444)
Source text: (§1) The spots in FIG. 22 represent E. coli ER2566 dilutions in the range of 100-10-5 (left to right). UV irradiation of 24 J/m2 was used to induce dinQ toxicity (right picture), and was compared to the unirradiated control assay (left picture). Control cells carry the vector plasmid (pKK232-8), and cells carrying the plasmid encoding intact dinQ (pBK444), were used as reference.
as §1, with “spots” for “spots in”, “23” for “22”, “10^0-10^−5” for “100-10-5”, “reference (see FIG. 23).” for “reference.”

wild type E. coli = assay: IPTG sensitivity spot assay, DinQ ORFs over-expressed from pET28b(+)
Procedure: A. IPTG sensitivity in strains plated on IPTG. An aliquot or serially diluted (10-1-10-5 cells ml-1) log-phase cultures of wild type E. coli with empty expression vector pET28b(+) or vector constructs with alternative DinQ ORFs were spotted onto LB plates containing no IPTG (left panel) or 0.6 mM IPTG (right panel). The […] indicates a toxic effect with DinQ ORF 2-5 when the translation is forced by IPTG induction.
Expression plasmids pET28b-ORF1, pET28b-ORF2, pET28b-ORF3, pET28b-ORF4 and pET28b-ORF5 contains the DinQ ORF1, ORF2, ORF3, ORF4 and ORFS open reading frames inserted in the NcoI-BamHI restriction sites of the pET28b(+) vector (Novagen).
The mechanism underlying the UV sensitive phenotype of DinQ in a multicopy situation or under upregulation in an agrB mutant is unknown. The dinQ gene contain two putative open reading frames in which one of the reading frames encode three putative start codons (ii-iv, see FIG. 1C). […] To examine if any of the open reading frames mediate the UV sensitivity each reading frame were cloned into the expression vector pET28b(+) and expressed under control of IPTG (FIG. 4A). […] Next, DinQ ORF […] expression was titrated with increasing concentrations of IPTG (FIG. 4C) showing that ORF IV is highly toxic to the cells at very low doses of IPTG induction. […]

E. coli cells = assay: Membrane depolarization, DiBAC4(3) uptake by flow cytometry after IPTG induction; details: 5 and 20 minutes after 1 mM IPTG
Procedure: Cells were grown to OD600≅0.4 in LB and then induced with IPTG to a final concentration of 1 mM. At 0, 5 and 20 minutes culture samples were diluted 1:10 in filtered AB minimal medium (Clark and MaalØe, 1967) +10 μg ml-1 DiBAC4(3) (Sigma-Aldrich). After 20 minutes incubation in the dark at room temperature, cells were analysed in a Flowcytometry LSRII (Becton Dickinson) equipped with an argon ion laser and a krypton laser (both Spectra Physics). DiBAC4(3) was detected in channel 580 using 488 nm laser. Parameters were collected as logarithmic signals. The two populations were easily separated in each staining experiment. The data obtained was analyzed by winMDI software.
To examine whether DinQ affects membrane polarization, the inventors tested the ability of E. coli cells with dinQ containing plasmids to take up the dye DiBAC4(3) [bis-(1,3-dibarbituric acid)-trimethine oxanol]. The dye enters cells upon membrane depolarization leading to increased fluorescence. Cells were taken 5 and 20 minutes after induction of DinQ expression with IPTG, incubated with DiBAC4(3) for 20 min and analyzed by flow cytometry (FIG. 9).

agrB mutant BK4043 = assay: Intracellular ATP concentration, luciferase-based assay; details: agrB mutant with up-regulated DinQ peptide vs wild type AB1157
Procedure: Aliquots of cells were harvested before and 20 minutes after induction with IPTG to a final concentration of 1 mM and washed once in 50 mM Tris-Acetate pH 7.75. ATP was extracted from washed cells by 1% (TCA) trichloraceticacid in 50 mM Tris-Acetate pH 7.75 for 10 minutes. Tris-acetate buffer (1 ml) was added 1:10 to obtain optimal pH of 7.75 before mixing with rL/L reagent (ENLITEN ATP assay, Promega) at room temperature. The amount of ATP extracted (RLU value) was measured with 20/20 Luminometer (Turner Designs) and related to the OD600 for each sample.
The effect of DinQ peptide on the intracellular ATP concentration was measured using a quantitative luciferase-based assay (see materials and methods for details). […] Extracts from uninduced and SOS-induced agrB cells and wild-type cells, AB1157, were analysed 20 minutes after exposure by UV irradiation (sublethal doses).

E. coli [1] = assay: Small colony variant count after IPTG induction of dinQ ORF5; details: IPTG 1 mM
Procedure: E. coli capable of overexpressing dinQ ORFS were incubated (O/N, 37° C., 200 rpm) before subculturing to OD600=0.01 (LB, kan, tet, amp). After incubation (37° C., 200 rpm) to OD600=0.5 expression of the toxin was either induced with IPTG (1 mM) or not. At time points after the addition the bacteria were serially diluted (×10) and plated (LB, 2% agar). After incubation (16 h, 37° C.) the plates were counted. Colony size was estimated and those 10× smaller than a typical colony were counted as a small colony variant SCV (see FIG. 21).

E. coli [2] = assay: Microscopy of E. coli overexpressing dinQ ORF5 upon IPTG induction; details: 4 h after IPTG 1 mM
Procedure: E. coli capable of overexpressing dinQ ORF5 were plated (LB agar 2%, kan, tet, amp) and incubated (O/N, 37° C.). A single colony was picked and grown (37° C., 16 h, 200 rpm) in liquid media (LB, kan, tet, amp). The culture was then adjusted to OD600=0.03 in fresh media (LB, kan, tet, amp) and allowed to grow (37° C., 16 h, 200 rpm) back to OD600=0.5 before induction with IPTG (1 mM). After incubation (4 h, 37° C., 200 rpm) an aliquot (200 μl) of the E. coli suspension was removed and fixed in MeOH (1 ml, −20° C.). After centrifugation (2000 rpm, 4° C., 5 min) the cells were aspirated and re-suspend in NaCl (0.9% in H2O). The samples were then spotted onto slides and allowed to dry (42° C.). The slides were then washed 3×H2O and allowed to air dry (RT) before microscopy (see FIG. 20).

Substance	toxicity of the dinQ peptide upon UV induction (E. coli ER2566)	effect on membrane integrity / depolarization (DiBAC4(3) uptake) (E. coli cells)	also measured
MIDKAIIVLKALIALLELIRFLLQLLN (G10K variant of dinQ ORF V peptide)	maintain the toxicity	–	–
ORF4: amino acid sequence of the dinQ IV polypeptide (ORF-IV), 38 aa (MHSHSIAWRKRVIDKAIIVLGALIALLELIRFLLQLLN; listed as Escherichia coli)	–	rapid and dramatic effects on the membrane integrity	toxicity on titration with increasing concentrations of IPTG (wild type E. coli; very low doses of IPTG induction): highly toxic
ORF3: amino acid sequence of the dinQ III polypeptide (ORF-III), 42 aa (MSKRMHSHSIAWRKRVIDKAIIVLGALIALLELIRFLLQLLN; listed as Escherichia coli)	–	rapid and dramatic effects on the membrane integrity	–
MIDKAIIVLGALIALLELIRFLLQLLN (listed as Escherichia coli) [ORF5, DinQ ORF-V peptide with N-terminal Met, form translated from GUG start codon, 27 aa]	–	rapid and dramatic effects on the membrane integrity	effect on intracellular ATP (agrB mutant BK4043): impairs the energy supply in the form of ATP; toxic/growth inhibitory effect on IPTG plates (wild type E. coli; pET28b(+) constructs, IPTG induction, absence of UV): strong toxicity; colony phenotype after induction (E. coli [1]): appearance of small colony variants (SCV); effect on membrane integrity (ghost cells) by microscopy (E. coli [2]): damages membrane integrity; effect on membrane integrity / depolarization (DiBAC4(3) uptake) (E. coli cells; listed as DinQ ORF5): most pronounced
MIDKAIIVLGALIALLELIRFLIQLLN (L23I variant of dinQ ORF V peptide)	maintain the toxicity	–	–
MIDKAIIVLGAIVALLELIRFLLQLLN [L12I and I13V]	maintain the toxicity	–	–
MIDKAIVVLGALIALLELIRFLLQLLN (I7V variant of dinQ ORF V peptide)	maintain the toxicity	–	–
DinQ ORF2: amino acid sequence of the dinQ II polypeptide (ORF-II), 49 aa (MRRDRQWMSKRMHSHSIAWRKRVIDKAIIVLGALIALLELIRFLLQLLN; listed as Escherichia coli)	–	rapid and dramatic effects on the membrane integrity	–

Source: patent US9676829B2, “Antibacterial polypeptides and use thereof” (Oslo Universitetssykehus HF, priority 2009, dated 2017)
